This passage reports inhibition and remaining activity results from US9492471B2, “Methods of treating a disease or disorder associated with Bruton'S Tyrosine Kinase” (Celgene Avilomics Research, Inc., priority 2013, dated 2016).

Where two headings read alike, the source gives them in different places.

Common to all, as to experiment: HotSpot kinase profiling
Common to all, as to type: biochemical

Assay [1] concerns the target T1, SRPK2 (Homo sapiens, UniProt P78362).
T1 construct: purchased Reaction Biology Corp
Put shortly: (§1)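 Radiometric kinase assay with P81 filter capture; each kinase was added to fresh substrate plus cofactors in reaction buffer and incubated 2 h at room temperature. Unreacted phosphate was washed off with 0.1% phosphoric acid before detection; percent inhibition is relative to DMSO control, averaged over replicates.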

The target of assay [2] is T2, LKB1 (Homo sapiens, UniProt Q15831).
T2 construct: purchased Reaction Biology Corp
T2 sequence (Q15831 1-433): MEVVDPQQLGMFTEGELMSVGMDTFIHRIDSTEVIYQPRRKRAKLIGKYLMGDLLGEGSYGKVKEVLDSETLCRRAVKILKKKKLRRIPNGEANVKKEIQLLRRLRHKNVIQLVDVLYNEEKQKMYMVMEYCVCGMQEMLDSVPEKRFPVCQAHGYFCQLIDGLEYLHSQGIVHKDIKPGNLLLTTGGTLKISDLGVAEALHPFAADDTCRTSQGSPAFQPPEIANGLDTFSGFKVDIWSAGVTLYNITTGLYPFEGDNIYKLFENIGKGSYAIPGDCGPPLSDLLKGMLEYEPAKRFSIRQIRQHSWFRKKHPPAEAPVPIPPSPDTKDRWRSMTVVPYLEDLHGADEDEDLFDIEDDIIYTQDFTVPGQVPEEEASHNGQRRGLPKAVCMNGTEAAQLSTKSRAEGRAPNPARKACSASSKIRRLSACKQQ
T2 sequence (Q7RTN6 1-431 partner): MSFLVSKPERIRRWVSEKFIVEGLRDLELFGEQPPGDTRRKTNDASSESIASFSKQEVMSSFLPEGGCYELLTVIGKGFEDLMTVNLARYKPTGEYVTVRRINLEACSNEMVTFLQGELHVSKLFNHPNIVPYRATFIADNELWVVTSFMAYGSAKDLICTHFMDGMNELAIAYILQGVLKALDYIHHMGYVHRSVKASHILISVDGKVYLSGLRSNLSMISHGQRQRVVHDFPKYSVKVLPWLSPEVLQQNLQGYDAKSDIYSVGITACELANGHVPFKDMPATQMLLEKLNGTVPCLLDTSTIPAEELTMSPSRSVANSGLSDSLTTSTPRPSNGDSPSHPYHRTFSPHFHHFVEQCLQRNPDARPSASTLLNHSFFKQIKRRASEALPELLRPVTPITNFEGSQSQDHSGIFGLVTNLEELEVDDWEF
T2 sequence (Q9Y376 1-341 partner): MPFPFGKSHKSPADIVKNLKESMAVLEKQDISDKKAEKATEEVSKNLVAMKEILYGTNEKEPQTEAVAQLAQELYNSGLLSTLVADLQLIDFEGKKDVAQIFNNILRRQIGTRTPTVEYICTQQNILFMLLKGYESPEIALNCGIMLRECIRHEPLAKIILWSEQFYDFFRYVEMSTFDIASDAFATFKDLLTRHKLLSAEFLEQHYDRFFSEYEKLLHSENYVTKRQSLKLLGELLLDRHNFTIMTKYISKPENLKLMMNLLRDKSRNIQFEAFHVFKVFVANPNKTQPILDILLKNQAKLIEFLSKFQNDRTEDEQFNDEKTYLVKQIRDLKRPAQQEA
Put shortly:
as §1

Assay [3] has as its target T3, GRK1 (Homo sapiens, UniProt Q15835).
T3 construct: purchased Reaction Biology Corp
T3 sequence (Q15835 1-563): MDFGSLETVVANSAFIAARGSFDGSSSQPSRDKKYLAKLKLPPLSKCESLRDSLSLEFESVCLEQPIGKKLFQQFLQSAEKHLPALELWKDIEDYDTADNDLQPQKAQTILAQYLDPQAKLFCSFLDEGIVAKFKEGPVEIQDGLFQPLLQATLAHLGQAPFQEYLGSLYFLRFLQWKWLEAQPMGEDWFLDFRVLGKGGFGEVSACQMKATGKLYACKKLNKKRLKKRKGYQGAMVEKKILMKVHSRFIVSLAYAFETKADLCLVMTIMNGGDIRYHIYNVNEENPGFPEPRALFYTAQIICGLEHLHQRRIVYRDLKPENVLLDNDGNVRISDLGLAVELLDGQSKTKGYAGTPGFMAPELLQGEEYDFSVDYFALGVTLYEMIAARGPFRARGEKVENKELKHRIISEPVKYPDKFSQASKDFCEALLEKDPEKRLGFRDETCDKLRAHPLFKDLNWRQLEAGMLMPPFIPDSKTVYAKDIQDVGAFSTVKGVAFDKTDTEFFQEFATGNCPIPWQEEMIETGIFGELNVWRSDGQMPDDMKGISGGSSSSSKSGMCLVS
Put shortly:
as §1

In assay [4] the target is T4, KDR/VEGFR2 (Homo sapiens, UniProt P35968).
T4 construct: purchased Reaction Biology Corp
T4 sequence (P35968 20-1356): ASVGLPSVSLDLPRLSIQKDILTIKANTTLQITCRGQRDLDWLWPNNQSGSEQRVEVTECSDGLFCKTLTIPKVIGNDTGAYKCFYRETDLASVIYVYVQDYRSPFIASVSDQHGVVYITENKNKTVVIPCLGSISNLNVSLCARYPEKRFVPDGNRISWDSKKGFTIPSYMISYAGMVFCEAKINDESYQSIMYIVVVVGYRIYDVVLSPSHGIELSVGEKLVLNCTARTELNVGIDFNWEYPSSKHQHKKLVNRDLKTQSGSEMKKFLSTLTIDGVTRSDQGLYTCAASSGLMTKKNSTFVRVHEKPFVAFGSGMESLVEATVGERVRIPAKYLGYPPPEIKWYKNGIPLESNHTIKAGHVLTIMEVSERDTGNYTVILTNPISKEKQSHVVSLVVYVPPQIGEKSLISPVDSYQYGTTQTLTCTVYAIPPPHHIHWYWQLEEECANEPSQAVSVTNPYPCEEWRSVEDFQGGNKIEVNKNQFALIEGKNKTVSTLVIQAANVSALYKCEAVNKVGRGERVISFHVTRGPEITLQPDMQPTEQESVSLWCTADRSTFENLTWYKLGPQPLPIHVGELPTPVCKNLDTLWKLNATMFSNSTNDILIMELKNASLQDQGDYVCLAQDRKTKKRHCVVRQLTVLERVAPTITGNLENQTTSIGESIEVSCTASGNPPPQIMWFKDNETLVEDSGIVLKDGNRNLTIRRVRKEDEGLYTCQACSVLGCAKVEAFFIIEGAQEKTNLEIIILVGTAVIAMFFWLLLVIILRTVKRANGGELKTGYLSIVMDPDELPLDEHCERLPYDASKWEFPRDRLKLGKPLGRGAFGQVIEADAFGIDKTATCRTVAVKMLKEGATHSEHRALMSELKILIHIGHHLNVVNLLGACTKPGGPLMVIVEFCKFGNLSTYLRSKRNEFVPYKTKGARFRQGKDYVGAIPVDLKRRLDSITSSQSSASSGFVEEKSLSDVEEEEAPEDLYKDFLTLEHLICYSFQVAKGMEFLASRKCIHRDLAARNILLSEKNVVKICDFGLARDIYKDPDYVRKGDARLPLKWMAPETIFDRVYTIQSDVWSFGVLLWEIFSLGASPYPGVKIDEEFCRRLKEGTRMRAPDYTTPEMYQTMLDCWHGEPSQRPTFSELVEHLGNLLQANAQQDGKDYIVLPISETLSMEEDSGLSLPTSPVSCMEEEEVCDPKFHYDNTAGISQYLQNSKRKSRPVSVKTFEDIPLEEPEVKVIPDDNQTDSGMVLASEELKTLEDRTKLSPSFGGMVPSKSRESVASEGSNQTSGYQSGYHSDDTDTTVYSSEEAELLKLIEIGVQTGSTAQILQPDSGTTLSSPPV
Put shortly: as §1

Where [5] appears, read: read-out: % Enzyme Activity (relative to DMSO controls) Run 1.
Where [6] appears, read: read-out: % Enzyme Activity (relative to DMSO controls) Run 2.

T1 sequence (P78362 whole entry): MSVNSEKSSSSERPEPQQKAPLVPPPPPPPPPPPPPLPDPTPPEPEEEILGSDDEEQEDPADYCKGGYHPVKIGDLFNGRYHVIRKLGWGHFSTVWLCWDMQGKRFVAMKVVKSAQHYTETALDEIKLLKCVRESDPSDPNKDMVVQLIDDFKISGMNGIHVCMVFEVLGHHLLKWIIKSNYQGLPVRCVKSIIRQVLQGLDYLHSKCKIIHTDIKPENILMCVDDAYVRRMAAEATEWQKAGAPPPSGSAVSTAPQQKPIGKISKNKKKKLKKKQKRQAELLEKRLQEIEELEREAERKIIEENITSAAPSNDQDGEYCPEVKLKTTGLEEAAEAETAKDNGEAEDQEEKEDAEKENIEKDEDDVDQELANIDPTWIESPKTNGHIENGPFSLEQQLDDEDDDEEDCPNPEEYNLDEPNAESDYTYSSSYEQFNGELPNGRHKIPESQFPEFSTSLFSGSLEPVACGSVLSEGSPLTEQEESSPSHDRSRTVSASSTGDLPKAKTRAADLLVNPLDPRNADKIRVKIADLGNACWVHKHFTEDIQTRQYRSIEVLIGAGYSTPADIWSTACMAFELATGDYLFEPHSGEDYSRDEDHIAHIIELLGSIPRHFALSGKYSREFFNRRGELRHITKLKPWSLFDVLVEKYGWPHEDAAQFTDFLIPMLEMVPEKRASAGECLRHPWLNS

For `C=CC(=O)Nc1cccc(Nc2nc(Nc3ccc(OCCOC)c(F)c3)ncc2F)c1` [Compound 2], the inhibition at 3 µM in assay [1] is 9.73%; in assay [2], 2.41%; in assay [3], -3.47%; in assay [4] it was 17.7%. For the same molecule, the remaining activity at 3 µM amounted to 90.9% in assay [1] (setting [5]); 89.6% in assay [1] (setting [6]); 99.2% in assay [2] (setting [5]); 95.9% in assay [2] (setting [6]); 104% in assay [3] (setting [5]); 103% in assay [3] (setting [6]). The remaining activity at 3 µM in assay [4] (setting [5]) is 83.3%; in assay [4] (setting [6]), 81.2%.
